Experimental data published in patent publication US9751847B2, “Methods and compositions related to neuroactive thiazoline compounds” (University of Utah Research Foundation, priority 2010, dated 2017).
“Also recorded” adds a separate entry of the source. Where two headings read alike, the source gives them in different places.

Assays:
Ca2+ Channel = assay: PDSP radioligand displacement receptor assay, Ca2+ channel; assay type: binding; conditions: for inhibition (10 μM) Ca2+ Channel: radioligand displacement, primary assay, 10 μM compound; for Ki: secondary binding assay, test compound 1 to 10,000 nM
Procedure: (§1) Receptor affinity assays were carried out according to methods as described at http://pdsp.med.unc.edu/ (accessed on Oct. 13, 2010).
(§2) Initial hits were obtained in radioligand displacement assays. […] Representative activity is highlighted in the table below showing in radioligand displacement activity at 10 μM of the in dicated compound. Ki was determined as indicated.

kappa opioid receptor = kappa opioid receptor (Homo sapiens, UniProt P41145); assay: PDSP radioligand displacement receptor assay, KOR; assay type: binding; conditions: for inhibition at 10 µM: radioligand displacement, primary assay, 10 μM compound; for Ki: secondary binding assay, test compound 1 to 10,000 nM
Procedure: as §1, §2

histamine H1 receptor = histamine H1 receptor (Homo sapiens, UniProt P35367); assay: PDSP radioligand displacement receptor assay, H1; assay type: binding; conditions: for inhibition at 10 µM: radioligand displacement, primary assay, 10 μM compound; for Ki: secondary binding assay, test compound 1 to 10,000 nM
Procedure: as §1, §2

5HT-2B receptor = 5HT-2B receptor (Homo sapiens, UniProt P41595); assay: PDSP radioligand displacement receptor assay, 5HT2B; assay type: binding; conditions: for inhibition at 10 µM: primary assay, 10 μM compound; for Ki: secondary binding assay
Procedure: as §1, §2

DAT = DAT (Homo sapiens, UniProt Q01959); assay: PDSP radioligand displacement receptor assay, DAT; assay type: binding; conditions: for inhibition at 10 µM: radioligand displacement, primary assay, 10 μM compound; for Ki: secondary binding assay, test compound 1 to 10,000 nM
Procedure: as §1, §2

[1] = test system: dorsal root ganglia (DRG) cells; assay: Dorsal root ganglion (DRG) assay, Fura-2 intracellular calcium with 25 mM KCl; assay type: cell-based, mice; conditions: pure compound 20 μg/mL, co-applied with 25 mM KCl, mouse DRG cells
Procedure: For details of the isolation and culture of dorsal root ganglion neurons see Light et al. Briefly, dorsal root ganglia (DRG) cells from cervical and lumbar regions were obtained from mice and used in an assay with bacterial culture extracts and pure compounds. DRG cells were suspended in medium with additives and loaded with Fura-2 AM (Molecular Probes), a fluorescent dye used to measure intracellular calcium levels. Experiments were performed at room temperature (20 to 25° C.) in a 24-well plate format using fluorescence microscopy. Individual cells were treated as single samples, so that the individual responses of diverse neuron subtypes from the DRG could be examined. After baseline measurements, the cells were treated with 25 mM KCl solution and then washed. After return to baseline, bacterial extracts, fractions, or pure compounds were applied. This solution was then later replaced with 25 mM KCl solution. The use of KCl permitted observation of direct, modulatory, as well as inhibitory and excitatory effects of the samples assayed.
Representative data for assay results obtained with a sample of crude extract (100 μg/mL; FIG. 33), as well as compounds 1, 2, and 8 (20 μg/mL; respectively, […]). The y-axis indicates the ratio between 340 nm and 380 nm fluorescence. A higher value indicates more Ca^2+ in the cell. The x-axis indicates time. Each line indicates an individual DRG cell followed over the experimental time course. In each experiment, KCl is applied either once or twice, the compounds or extracts are incubated with cells, then the compound is co-applied with KCl.

[2] = test system: other serotonin receptors; assay: PDSP primary assay, other serotonin receptors; assay type: binding; conditions: 5HT-2B versus other serotonin receptors
Procedure: as §1, §2

[3] = test compound 1 to 10,000 nM, read-out: Ki (nM) 5HT2B

Sequence of 5HT-2B receptor (P41595 whole entry): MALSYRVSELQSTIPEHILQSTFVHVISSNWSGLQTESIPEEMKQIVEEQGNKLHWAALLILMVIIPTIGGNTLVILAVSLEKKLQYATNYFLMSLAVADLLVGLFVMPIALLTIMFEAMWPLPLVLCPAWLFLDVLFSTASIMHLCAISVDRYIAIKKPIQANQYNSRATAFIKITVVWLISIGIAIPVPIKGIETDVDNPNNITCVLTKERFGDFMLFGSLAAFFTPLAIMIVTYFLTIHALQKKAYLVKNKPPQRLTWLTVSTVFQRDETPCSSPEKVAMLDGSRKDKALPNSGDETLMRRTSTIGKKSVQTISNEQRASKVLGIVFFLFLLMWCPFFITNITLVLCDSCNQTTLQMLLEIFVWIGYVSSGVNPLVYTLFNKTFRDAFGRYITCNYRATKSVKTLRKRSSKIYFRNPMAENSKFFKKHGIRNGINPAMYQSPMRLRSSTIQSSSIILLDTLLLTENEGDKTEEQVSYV
Sequence of histamine H1 receptor (P35367 whole entry, species assumed): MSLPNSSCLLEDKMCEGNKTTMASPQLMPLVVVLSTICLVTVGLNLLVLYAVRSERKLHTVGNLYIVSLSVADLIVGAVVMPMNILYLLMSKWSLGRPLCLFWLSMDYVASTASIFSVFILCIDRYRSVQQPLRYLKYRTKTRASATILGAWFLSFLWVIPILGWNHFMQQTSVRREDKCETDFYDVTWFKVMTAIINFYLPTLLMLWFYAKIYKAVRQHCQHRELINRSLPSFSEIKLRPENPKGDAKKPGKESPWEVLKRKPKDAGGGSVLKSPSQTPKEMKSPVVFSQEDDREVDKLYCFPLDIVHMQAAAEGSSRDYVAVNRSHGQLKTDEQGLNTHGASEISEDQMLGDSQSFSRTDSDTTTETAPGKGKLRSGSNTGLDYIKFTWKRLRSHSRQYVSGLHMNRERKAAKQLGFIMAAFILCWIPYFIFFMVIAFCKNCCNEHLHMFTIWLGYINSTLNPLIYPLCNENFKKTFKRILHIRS
Sequence of kappa opioid receptor (P41145 whole entry): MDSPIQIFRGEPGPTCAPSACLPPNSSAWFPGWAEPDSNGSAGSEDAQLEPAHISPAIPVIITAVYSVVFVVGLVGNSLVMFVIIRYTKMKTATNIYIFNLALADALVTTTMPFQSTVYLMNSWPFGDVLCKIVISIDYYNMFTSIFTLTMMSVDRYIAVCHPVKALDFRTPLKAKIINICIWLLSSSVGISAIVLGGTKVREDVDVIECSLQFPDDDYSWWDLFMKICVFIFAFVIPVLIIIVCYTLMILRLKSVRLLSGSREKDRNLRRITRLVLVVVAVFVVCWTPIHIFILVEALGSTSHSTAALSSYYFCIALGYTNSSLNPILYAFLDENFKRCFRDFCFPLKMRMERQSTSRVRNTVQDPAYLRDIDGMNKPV
Sequence of DAT (Q01959 whole entry, species assumed): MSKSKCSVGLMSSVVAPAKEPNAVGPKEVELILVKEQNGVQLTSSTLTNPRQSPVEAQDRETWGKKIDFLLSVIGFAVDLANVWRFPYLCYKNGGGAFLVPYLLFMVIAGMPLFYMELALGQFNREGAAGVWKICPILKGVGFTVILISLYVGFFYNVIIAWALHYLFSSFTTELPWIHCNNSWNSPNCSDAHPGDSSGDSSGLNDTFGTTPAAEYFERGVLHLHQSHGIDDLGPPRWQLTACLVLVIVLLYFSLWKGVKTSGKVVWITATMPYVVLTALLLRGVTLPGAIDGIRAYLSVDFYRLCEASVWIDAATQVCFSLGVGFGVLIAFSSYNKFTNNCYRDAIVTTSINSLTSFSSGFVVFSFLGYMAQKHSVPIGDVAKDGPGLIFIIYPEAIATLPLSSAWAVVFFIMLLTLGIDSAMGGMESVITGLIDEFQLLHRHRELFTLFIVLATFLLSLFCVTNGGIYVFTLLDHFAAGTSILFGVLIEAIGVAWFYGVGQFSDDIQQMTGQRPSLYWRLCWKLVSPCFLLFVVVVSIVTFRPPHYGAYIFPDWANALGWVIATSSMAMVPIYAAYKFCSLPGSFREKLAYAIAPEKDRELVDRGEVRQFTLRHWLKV

Row | Structure (SMILES) | inhibition (10 μM) Ca2+ Channel (Ca2+ Channel) [%] | inhibition at 10 µM (kappa opioid receptor) [%] | inhibition at 10 µM (histamine H1 receptor) [%] | inhibition at 10 µM (5HT-2B receptor; radioligand displacement) [%] | Ki (5HT-2B receptor; [3]) [nM] | inhibition at 10 µM (DAT) [%] | Ki (DAT) [nM] | Ki (Ca2+ Channel) [nM] | response in DRG assay (Ca2+ influx) [1] | Ki (kappa opioid receptor) [nM] | selectivity for the 5HT-2B receptor versus the other serotonin receptors [2] [fold] | Ki (histamine H1 receptor) [nM] | Ki (5HT-2B receptor; radioligand displacement, read-out: Ki (nM) vs 5-HT2B) [nM]
1 | Cc1sc(-c2ccccc2O)nc1C=O [Compound 5, 2-(2-hydroxyphenyl)-5-methylthiazole-4-carbaldehyde] | −18.9 | 37.1 | 42.5 | 77 | 1540 | 88.3 | 5180 |  |  |  |  |  | 
2 | C[C@@H]1SC(c2ccccc2O)=N[C@@H]1CO [Compound 2, 2-((4R,5S)-4-(hydroxymethyl)-5-methyl-4,5-dihydrothiazol-2-yl)phenol] |  | 60.8 | 45.8 | 89.7 | 505 | 6 |  | 6600 | inhibitory response; also recorded: decreased Ca^2+ influx | > 10000 | ≥ 20 |  | 
3 | NC(=O)C1CSC(c2ccccc2O)=N1 (stereo not drawn) [Compound 8, 2-(2-hydroxyphenyl)-4,5-dihydrothiazole-4-carboxamide] | −3.4 | 50.4 | 71.6 | 65.8 | 1260 | 13.8 |  |  | excitatory response; also recorded: increased Ca^2+ influx | 3710 |  | 678 ± 46 | 
4 | OC[C@@H]1CSC(c2ccccc2O)=N1 [Compound 1, (R)-2-(4-(hydroxymethyl)-4,5-dihydrothiazol-2-yl)phenol] | −0.7 | 57.2 | 39 | 79.2 | 1360 | -1.5 |  |  | excitatory response; also recorded: increased Ca^2+ influx | > 10000 |  |  | 
5 | C[C@@H]1SC(c2ccccc2O)=N[C@H]1[C@H]1SC[C@](C)(C(=O)O)N1C [Compound 10, (2R,4S)-2-((4R,5S)-2-(2-hydroxyphenyl)-5-methyl-4,5-dihydrothiazol-4-yl)-3,4-dimethylthiazolidine-4-carboxylic acid] | 110.4 | 31.9 | -3 | 40.3 | 4700 | -0.3 |  | 9750 |  |  |  |  | 
6 | NC(=O)c1csc(-c2ccccc2O)n1 [Compound 7, 2-(2-hydroxyphenyl)thiazole-4-carboxamide] | 29.6 | 31.8 | 88 | 84.9 |  | 2.4 |  |  |  |  |  | 517 ± 28 | 1030 ± 76
7 | C[C@@H]1SC(c2ccccc2O)=N[C@H]1[C@@H]1SC[C@](C)(C(=O)O)N1C [Compound 9, (2S,4S)-2-((4R,5S)-2-(2-hydroxyphenyl)-5-methyl-4,5-dihydrothiazol-4-yl)-3,4-dimethylthiazolidine-4-carboxylic acid] | 0.1 | 41.4 | 16.3 | 68 | 3920 | 83.8 | > 10000 |  |  |  |  |  | 
